Test results from patent US4320052A, “Derivatives of A-30912A nucleus” (Eli Lilly and Company, priority 1980, dated 1982).
≈ marks a conversion by molar mass, not a printed value. Where “and” joins values, the source holds several entries; their conditions need not be identical. Identical values can stand only once. Like-named read-outs stand apart in the source and are kept apart here. Numbered stars: 1 amine (or outer) side, 2 acyl side, 3 side chain; on linkers, the order of the positions; unused ones are H or OH. Bridge positions count the residues as written; N and C are the ends. Square brackets hold non-standard residues; d marks the D form. Peptide text beside a SMILES is read from it. * marks the point of attachment. Orn(4R-OH,5R-OH) = O=C([C@H](C[C@@H](O)[C@@H](O)N[*:3])N[*:1])[*:2]; hTyr(3S-OH,4S-OH) = N[C@H](C(=O)O)[C@H](O)[C@@H](O)c1ccc(O)cc1; Pro(3S-OH,4S-Me) = C[C@H]1CN[C@H](C(=O)O)[C@H]1O; Docosanoyl = CCCCCCCCCCCCCCCCCCCCCC(=O)*; Nonadecanoyl = CCCCCCCCCCCCCCCCCCC(=O)*; Arachidoyl = CCCCCCCCCCCCCCCCCCCC(=O)*; X1 = CC/C=C\C/C=C\C/C=C\CCCCCCCC(=O)*; Hyp = O=C(O)[C@@H]1C[C@@H](O)CN1; Tridecanoyl = CCCCCCCCCCCCC(=O)*

Columns and labels:
[1] = tested on: Trichophyton mentagraphytes A-23; assay: Agar plate disc diffusion test (zone of inhibition); type: cell-based, Trichophyton mentagrophytes
Method: (§1) Tables II and III give the results of the testing in vitro of the compounds of Examples 1-16 by agar-plate disc-diffusion methods. In Table II activity is measured by the size (diameter in mm.) of the observed zone of inhibition of the microorganism produced by the test compound. In Table III, activity is measured by the minimal inhibitory concentration (MIC) of the substance (μg/dic) required to inhibit growth of the test organism. Table IV gives the results of the testing in vitro of the n-tridecanoyl derivative of A30912A nucleus (Formula III, R is n-C12 H25) against five strains of Candida albicans by the agar dilution method. In […] activity is measured by the minimal inhibitory concentration (MIC) of the substance (μg/ml) required to inhibit the test organism.
(§2) ^(a) Compounds were tested as suspension in methanol at a
(§3) concentration of 1 mg/ml. by dipping a 7mm disc into the suspension and
(§4) placing it on the agar surface. Incubation: 24-48 hours at 25-37°

[2] = tested on: Candida albicans A-26; assay: In vivo activity against Candida albicans A-26 infection in mice; design: species or system mice infected with Candida albicans A-26; conditions: Candida albicans, A26, sc, 24 h; for minimal effective dose: read-out: Lowest Active Dose
Method: The results of in vivo tests to evaluate the effectiveness of the compound of Examples 1-16 against an infection caused by Candida albicans A-26 in mice are given in Table V, where activity is measured by the ED50 value (the dose in mg/kg. required to cure 50% of the test animals). Where an ED50 value was not obtained, activity is indicated by the lowest dose at which a significant anti-fungal effect is observed. In this test, groups of male albino mice (specific pathogen free), weighing 18 to 20 grams, are infected intravenously with Candida albicans A-26. The animals are X-irradiated 24 hours prior to infection at about 50 roentgens per minute for 8 minutes (400 total dose) to reduce immune responses to the infecting organism. At 0, 4, and 24 hours post infection each group of mice is given graded doses subcutaneously of the test compound as a suspension in 33% polyethylene glycol-water. The day of death for each animal is recorded.
mg/kg. Dosages given 0, 4, and 24 hours post injection as suspension of
test compound in 30% PEG--H2 O. Number of mice receiving test
compounds at each dosage level; 6 mice per group. Number of mice in
control (untreated) group: 10 mice per group.
**As measured by increase in survival time of treated animals versus
control, calculated by method of Reed v Mueuch, American J. Hygiene, 27,

[3] = Blood levels after oral administration in mice (bioassay vs. Aspergillus montevidensis A35137); conditions: mouse, in vivo; for concentration at 4 h: po; for Blood Levels After Oral Administration In Mice: 240 min
From the text: determined by bioassay vs. Aspergillus montevidensis A35137.

[4] = tested on: Candida albicans; assay: Agar dilution test against strains of Candida albicans (MIC); type: cell-based
Method: as §1

[5] = tested on: Candida albicans A-26; assay: Agar plate disc diffusion test (MIC); type: cell-based; conditions: 0.01M sodium borate pH 7.5; 20 μg/disc top, twofold dilutions; 24 hours, 30° C.
Method: as §1
(§5) *Compounds were suspended in 0.01M sodium borate solution, pH 7.5. The
(§6) compounds were tested at 20 μg/disc at top level and at twofold
(§7) dilutions until end points were reached. Incubation: 24 hours; 30°

[6] = tested on: Trichophyton mentagrophytes #6; assay: Agar plate disc diffusion test (MIC); type: cell-based; conditions: 0.01M sodium borate pH 7.5; 20 μg/disc top, twofold dilutions; 24 hours, 30° C.
Method: as §1, §5, §6, §7

[7] = Toxicity in dog, intravenous administration; type: in vivo; conditions: 100 mg/kg per day for five days
[8] = tested on: Candida albicans A-26; assay: Agar plate disc diffusion test (zone of inhibition); type: cell-based; conditions: suspension in methanol 1 mg/ml, 7mm disc; 24-48 hours at 25-37° C.
Method: as §1, §2, §3, §4

[9] = tested on: Neurospora crassa 846; assay: as above; type: cell-based
Method: as §1, §2, §3, §4

[10] = tested on: Saccharomyces pastoranius X-52; assay: as above; type: cell-based, Saccharomyces pastorianus
Method: as §1, §2, §3, §4

[11] = A23, suspension in methanol 1 mg/ml, 7mm disc, 24-48 hours at 25-37° C., read-out: Size of zone of inhibition, Trichophyton mentagraphytes A-23
[12] = mice, subcutaneous, schedule A (40, 20, 15, and 10 mg/kg), 0, 4, 24 hours, increase in survival time, read-out: ED50
[13] = mice, subcutaneous, schedule A (40, 20, 15, and 10 mg/kg), 0, 4, 24 hours
[14] = Neurospora crassa, 846, suspension in methanol 1 mg/ml, 7mm disc, *distinct measurable zone of inhibition with regrowth of organism around disc, read-out: Size of zone of inhibition, Neurospora crassa 846 (*)
[15] = X52, suspension in methanol 1 mg/ml, 7mm disc, 24-48 hours at 25-37° C., read-out: Size of zone of inhibition, Saccharomyces pastoranius X-52
[16] = Neurospora crassa, 846, suspension in methanol 1 mg/ml, 7mm disc, 24-48 hours at 25-37° C., read-out: Size of zone of inhibition, Neurospora crassa 846

What does the source list for CCCCCCCCCCCCC(=O)N[C@H]1C[C@@H](O)[C@@H](O)NC(=O)[C@@H]2[C@@H](O)[C@@H](C)CN2C(=O)[C@H]([C@@H](C)O)NC(=O)[C@H]([C@H](O)[C@@H](O)c2ccc(O)cc2)NC(=O)[C@@H]2C[C@@H](O)CN2C(=O)[C@H]([C@@H](C)O)NC1=O [Example 2, n-Tridecanoyl Derivative of A-30912A Nucleus] (Tridecanoyl-[Orn(4R-OH,5R-OH)]T[Hyp][hTyr(3S-OH,4S-OH)]T[Pro(3S-OH,4S-Me)]; lactam 1-C)?
zone of inhibition at 1000 µg/mL ([1]; A23, read-out: Size of zone of inhibition, Trichophyton mentagraphytes A-23 (*)): 60 mm; ED50 [2]: 34 mg/kg; minimal effective dose [2]: 20 mg/kg; concentration at 4 h ([3]; four hours after 416 mg/kg by gavage, suspension in 33% PEG 400-H2O, read-out: Blood Levels After Oral Administration In Mice): 0.1 µg/mL; MIC ([4]; read-out: MIC, Candida albicans A26): 0.312 mg/L (≈ 0.314 µM); MIC ([4]; strain SBH 16, agar dilution, read-out: MIC, Candida albicans SBH 16): 0.625 mg/L (≈ 0.629 µM); MIC ([4]; strain SBH 28, agar dilution, read-out: MIC, Candida albicans SBH 28): 0.625 mg/L (≈ 0.629 µM); MIC ([4]; strain SBH 29, agar dilution, read-out: MIC, Candida albicans SBH 29): 0.625 mg/L (≈ 0.629 µM); MIC ([4]; strain SBH 31, agar dilution, read-out: MIC, Candida albicans SBH 31): 0.625 mg/L (≈ 0.629 µM); MIC, Candida albicans A-26 [5]: 0.625 μg/disc; MIC, Trichophyton mentagrophytes #6 [6]: 0.039 μg/disc; SGPT levels [7]: increased SGPT levels; hemolysis [7]: evidence of hemolysis; outward signs of toxicity [7]: no outward signs of toxicity; Size of zone of inhibition, Candida albicans A-26 [8]: 30 mm; zone of inhibition at 1000 µg/mL ([9]; Neurospora crassa, 846, read-out: Size of zone of inhibition, Neurospora crassa 846 (*)): 32 mm; zone of inhibition at 1000 µg/mL ([10]; X52, read-out: Size of zone of inhibition, Saccharomyces pastoranius X-52): 21 mm

For CC/C=C\C/C=C\C/C=C\CCCCCCCC(=O)N[C@H]1C[C@@H](O)[C@@H](O)NC(=O)[C@@H]2[C@@H](O)[C@@H](C)CN2C(=O)[C@H]([C@@H](C)O)NC(=O)[C@H]([C@H](O)[C@@H](O)c2ccc(O)cc2)NC(=O)[C@@H]2C[C@@H](O)CN2C(=O)[C@H]([C@@H](C)O)NC1=O [Example 11] (X1-[Orn(4R-OH,5R-OH)]T[Hyp][hTyr(3S-OH,4S-OH)]T[Pro(3S-OH,4S-Me)]; lactam 1-C), which zone of inhibition at 1000 µg/mL [1, 11] is on record?
The zone of inhibition at 1000 µg/mL was 36 mm.

And the ED50 [2, 12]?
The ED50 was over 40 mg/kg.

What about the minimal effective dose [2, 13] of the same molecule?
The minimal effective dose was over 40 mg/kg.

What about the “Blood Levels After Oral Administration In Mice” value [3] of the same molecule?
Its value is 0 µg/mL.

What about the “MIC, Candida albicans A-26” value [5] of the same molecule?
Its value is 1.25 μg/disc.

And the “MIC, Trichophyton mentagrophytes #6” value [6]?
Its value is 0.039 μg/disc.

What about the “Size of zone of inhibition, Candida albicans A-26” value [8] of the same molecule?
Its value is 30 mm.

What about the zone of inhibition at 1000 µg/mL [9, 14] of the same molecule?
Its zone of inhibition at 1000 µg/mL is 33 mm.

What about the zone of inhibition at 1000 µg/mL [10, 15] of the same molecule?
The zone of inhibition at 1000 µg/mL was 16 mm.

Which results are given for CCCCCCCCCCCCCCCCCCC(=O)N[C@H]1C[C@@H](O)[C@@H](O)NC(=O)[C@@H]2[C@@H](O)[C@@H](C)CN2C(=O)[C@H]([C@@H](C)O)NC(=O)[C@H]([C@H](O)[C@@H](O)c2ccc(O)cc2)NC(=O)[C@@H]2C[C@@H](O)CN2C(=O)[C@H]([C@@H](C)O)NC1=O [Example 12] (Nonadecanoyl-[Orn(4R-OH,5R-OH)]T[Hyp][hTyr(3S-OH,4S-OH)]T[Pro(3S-OH,4S-Me)]; lactam 1-C)?
zone of inhibition at 1000 µg/mL ([1]; A23, suspension in methanol 1 mg/ml, 7mm disc, *distinct measurable zone of inhibition with regrowth of organism around disc, read-out: Size of zone of inhibition, Trichophyton mentagraphytes A-23 (*)): 22 mm; minimal effective dose [2, 13]: ≥ 5 mg/kg; concentration at 4 h ([3]; 416 mg/kg): 54 µg/mL; MIC, Candida albicans A-26 [5]: 2.5 μg/disc and 5.0 μg/disc; MIC, Trichophyton mentagrophytes #6 [6]: 1.25 μg/disc and 0.625 μg/disc; Size of zone of inhibition, Candida albicans A-26 [8]: 19 mm; zone of inhibition at 1000 µg/mL [9, 14]: 18 mm; zone of inhibition at 1000 µg/mL [10, 15]: 17 mm

Which results are given for CCCCCCCCCCCCCCCCCCCC(=O)N[C@H]1C[C@@H](O)[C@@H](O)NC(=O)[C@@H]2[C@@H](O)[C@@H](C)CN2C(=O)[C@H]([C@@H](C)O)NC(=O)[C@H]([C@H](O)[C@@H](O)c2ccc(O)cc2)NC(=O)[C@@H]2C[C@@H](O)CN2C(=O)[C@H]([C@@H](C)O)NC1=O [Example 13] (Arachidoyl-[Orn(4R-OH,5R-OH)]T[Hyp][hTyr(3S-OH,4S-OH)]T[Pro(3S-OH,4S-Me)]; lactam 1-C)?
zone of inhibition at 1000 µg/mL [1, 11]: 16 mm; ED50 [2, 12]: 40 mg/kg; minimal effective dose [2, 13]: 10 mg/kg; Blood Levels After Oral Administration In Mice [3]: 0 µg/mL; MIC, Candida albicans A-26 [5]: 5.0 μg/disc; MIC, Trichophyton mentagrophytes #6 [6]: 5 μg/disc; Size of zone of inhibition, Candida albicans A-26 [8]: 16 mm; zone of inhibition at 1000 µg/mL [9, 16]: 13 mm; zone of inhibition at 1000 µg/mL [10, 15]: 18 mm

With CCCCCCCCCCCCCCCCCCCCCC(=O)N[C@H]1C[C@@H](O)[C@@H](O)NC(=O)[C@@H]2[C@@H](O)[C@@H](C)CN2C(=O)[C@H]([C@@H](C)O)NC(=O)[C@H]([C@H](O)[C@@H](O)c2ccc(O)cc2)NC(=O)[C@@H]2C[C@@H](O)CN2C(=O)[C@H]([C@@H](C)O)NC1=O [Example 15] (Docosanoyl-[Orn(4R-OH,5R-OH)]T[Hyp][hTyr(3S-OH,4S-OH)]T[Pro(3S-OH,4S-Me)]; lactam 1-C) as the molecule, how does the zone of inhibition at 1000 µg/mL [1, 11] read?
The zone of inhibition at 1000 µg/mL was 20 mm.

What about the ED50 [2, 12] of the same molecule?
The ED50 was over 40 mg/kg.

What about the minimal effective dose [2, 13] of the same molecule?
Its minimal effective dose is over 40 mg/kg.

What about the “Blood Levels After Oral Administration In Mice” value [3] of the same molecule?
The value was 0 µg/mL.

And the “MIC, Candida albicans A-26” value [5]?
Its value is 5.0 μg/disc.

What about the “MIC, Trichophyton mentagrophytes #6” value [6] of the same molecule?
Its value is 5 μg/disc.

And the “Size of zone of inhibition, Candida albicans A-26” value [8]?
The value was 12 mm.

What about the zone of inhibition at 1000 µg/mL [9, 16] of the same molecule?
Its zone of inhibition at 1000 µg/mL is 15 mm.

What about the zone of inhibition at 1000 µg/mL [10, 15] of the same molecule?
The zone of inhibition at 1000 µg/mL was 19 mm.
